≈ marks a conversion by molar mass, not a printed value.
Experiments:
Format in all cases: cell-based
[1] = tested on: Pseudomonas aeruginosa 1771; experiment: In vitro antibacterial activity (MIC), agar dilution; details: 2-fold agar dilution, Muller-Hinton agar, 18 hours at 37° C., read-out: minimum inhibitory concentration (MIC)
Procedure: (§1) 10^7 cfu/ml of bacteria were inoculated and cultured for 18 hours at 37° C. and then the antibacterial activities were measured. For the methicillin resistant strains the activities were measured after 48 hours of cultivation at 30° C. Hoechst Standard strains were used for the testings.

[2] = tested on: Staphylococcus aureus SG511; experiment: as above; details: 2-fold agar dilution, Muller-Hinton agar, 18 hours at 37° C., read-out: minimum inhibitory concentration (MIC)
Procedure: as §1

[3] = tested on: Pseudomonas aeruginosa 1771M; experiment: as above; details: Pseudomonas aeruginosa, 1771M, 18 h, read-out: minimum inhibitory concentration (MIC)
Procedure: as §1

[4] = tested on: Staphylococcus aureus 503; experiment: as above; details: 2-fold agar dilution, Muller-Hinton agar, 18 hours at 37° C., read-out: minimum inhibitory concentration (MIC)
Procedure: as §1

Klebsiella oxytoca 1082E = experiment: as above; details: 2-fold agar dilution, Muller-Hinton agar, 18 hours at 37° C., read-out: minimum inhibitory concentration (MIC)
Procedure: as §1

Salmonella typhimurium = experiment: as above; details: Salmonella enterica, 2-fold agar dilution, Muller-Hinton agar, 18 hours at 37° C., read-out: minimum inhibitory concentration (MIC)
Procedure: as §1

[5] = tested on: Klebsiella aerogenes 1522E; experiment: as above; details: 2-fold agar dilution, Muller-Hinton agar, 18 hours at 37° C., read-out: minimum inhibitory concentration (MIC)
Procedure: as §1

[6] = tested on: Staphylococcus aureus 285; experiment: as above; details: 2-fold agar dilution, Muller-Hinton agar, 18 hours at 37° C., read-out: minimum inhibitory concentration (MIC)
Procedure: as §1

[7] = tested on: Enterobacter clocae 1321E; experiment: as above; details: 2-fold agar dilution, Muller-Hinton agar, 18 hours at 37° C., read-out: minimum inhibitory concentration (MIC)
Procedure: as §1

Enterobacter clocae P99 = experiment: as above; details: 2-fold agar dilution, Muller-Hinton agar, 18 hours at 37° C., read-out: minimum inhibitory concentration (MIC)
Procedure: as §1

[8] = tested on: Streptococcus faecium MD 8b; experiment: as above; details: Enterococcus faecium, MD8B, 2-fold agar dilution, Muller-Hinton agar, 18 hours at 37° C., read-out: minimum inhibitory concentration (MIC)
Procedure: as §1

[9] = tested on: Pseudomonas aeruginosa 1592E; experiment: as above; details: 2-fold agar dilution, Muller-Hinton agar, 18 hours at 37° C., read-out: minimum inhibitory concentration (MIC)
Procedure: as §1

[10] = tested on: Pseudomonas aeruginosa 9027; experiment: as above; details: 2-fold agar dilution, Muller-Hinton agar, 18 hours at 37° C., read-out: minimum inhibitory concentration (MIC)
Procedure: as §1

Esherichia coli 078 = experiment: as above; details: 2-fold agar dilution, Muller-Hinton agar, 18 hours at 37° C., read-out: minimum inhibitory concentration (MIC)
Procedure: as §1

Esherichia coli DC0 = experiment: as above; details: 2-fold agar dilution, Muller-Hinton agar, 18 hours at 37° C., read-out: minimum inhibitory concentration (MIC)
Procedure: as §1

[11] = tested on: Streptococcus pyogens 308A; experiment: as above; details: 2-fold agar dilution, Muller-Hinton agar, 18 hours at 37° C., read-out: minimum inhibitory concentration (MIC)
Procedure: as §1

[12] = tested on: Streptococcus pyogens 77A; experiment: as above; details: 2-fold agar dilution, Muller-Hinton agar, 18 hours at 37° C., read-out: minimum inhibitory concentration (MIC)
Procedure: as §1

Esherichia coli TEM = experiment: as above; details: 2-fold agar dilution, Muller-Hinton agar, 18 hours at 37° C., read-out: minimum inhibitory concentration (MIC)
Procedure: as §1

Esherichia coli 1507E = experiment: as above; details: 2-fold agar dilution, Muller-Hinton agar, 18 hours at 37° C., read-out: minimum inhibitory concentration (MIC)
Procedure: as §1

[13] = tested on: Staphylococcus aureus 121E; experiment: In vitro antibacterial activity against resistant strains (MIC); details: resistant strain Staphylococcus aureus 121E; 2-fold agar dilution; methicillin resistant strains 48 hours at 30° C.; read-out: minimum inhibitory concentration (MIC)
Procedure: as §1

[14] = tested on: Staphylococcus aureus 695E; experiment: as above; details: resistant strain Staphylococcus aureus 695E; 2-fold agar dilution; methicillin resistant strains 48 hours at 30° C.; read-out: minimum inhibitory concentration (MIC)
Procedure: as §1

[15] = tested on: Staphylococcus aureus 88E; experiment: as above; details: resistant strain Staphylococcus aureus 88E; 2-fold agar dilution; methicillin resistant strains 48 hours at 30° C.; read-out: minimum inhibitory concentration (MIC)
Procedure: as §1

[16] = tested on: Staphylococcus aureus 694E; experiment: as above; details: resistant strain Staphylococcus aureus 694E; 2-fold agar dilution; methicillin resistant strains 48 hours at 30° C.; read-out: minimum inhibitory concentration (MIC)
Procedure: as §1

[17] = tested on: Staphylococcus aureus 208E; experiment: as above; details: resistant strain Staphylococcus aureus 208E; 2-fold agar dilution; methicillin resistant strains 48 hours at 30° C.; read-out: minimum inhibitory concentration (MIC)
Procedure: as §1

[18] = tested on: Staphylococcus aureus 693E; experiment: as above; details: resistant strain Staphylococcus aureus 693E; 2-fold agar dilution; methicillin resistant strains 48 hours at 30° C.; read-out: minimum inhibitory concentration (MIC)
Procedure: as §1

[19] = tested on: Staphylococcus aureus 293; experiment: as above; details: resistant strain Staphylococcus aureus 293; 2-fold agar dilution; methicillin resistant strains 48 hours at 30° C.; read-out: minimum inhibitory concentration (MIC)
Procedure: as §1

[20] = tested on: Staphylococcus aureus 179; experiment: as above; details: resistant strain Staphylococcus aureus 179; 2-fold agar dilution; methicillin resistant strains 48 hours at 30° C.; read-out: minimum inhibitory concentration (MIC)
Procedure: as §1

[21] = tested on: Staphylococcus aureus 701E; experiment: as above; details: resistant strain Staphylococcus aureus 701E; 2-fold agar dilution; methicillin resistant strains 48 hours at 30° C.; read-out: minimum inhibitory concentration (MIC)
Procedure: as §1

[22] = tested on: Staphylococcus aureus 256E; experiment: as above; details: resistant strain Staphylococcus aureus 256E; 2-fold agar dilution; methicillin resistant strains 48 hours at 30° C.; read-out: minimum inhibitory concentration (MIC)
Procedure: as §1

[23] = tested on: Staphylococcus aureus 303; experiment: as above; details: resistant strain Staphylococcus aureus 303; 2-fold agar dilution; methicillin resistant strains 48 hours at 30° C.; read-out: minimum inhibitory concentration (MIC)
Procedure: as §1

[24] = tested on: Staphylococcus aureus 692E; experiment: as above; details: resistant strain Staphylococcus aureus 692E; 2-fold agar dilution; methicillin resistant strains 48 hours at 30° C.; read-out: minimum inhibitory concentration (MIC)
Procedure: as §1

[25] = tested on: Staphylococcus aureus 690E; experiment: as above; details: resistant strain Staphylococcus aureus 690E; 2-fold agar dilution; methicillin resistant strains 48 hours at 30° C.; read-out: minimum inhibitory concentration (MIC)
Procedure: as §1

[26] = tested on: Staphylococcus aureus 703E; experiment: as above; details: resistant strain Staphylococcus aureus 703E; 2-fold agar dilution; methicillin resistant strains 48 hours at 30° C.; read-out: minimum inhibitory concentration (MIC)
Procedure: as §1

[27] = tested on: Staphylococcus epidermidis 178; experiment: as above; details: resistant strain Staphylococcus epidermidis 178; 2-fold agar dilution; methicillin resistant strains 48 hours at 30° C.; read-out: minimum inhibitory concentration (MIC)
Procedure: as §1

[28] = tested on: Staphylococcus aureus 8236; experiment: as above; details: resistant strain Staphylococcus aureus 8236; 2-fold agar dilution; methicillin resistant strains 48 hours at 30° C.; read-out: minimum inhibitory concentration (MIC)
Procedure: as §1

[29] = tested on: Staphylococcus aureus 241; experiment: as above; details: resistant strain Staphylococcus aureus 241; 2-fold agar dilution; methicillin resistant strains 48 hours at 30° C.; read-out: minimum inhibitory concentration (MIC)
Procedure: as §1

[30] = tested on: Staphylococcus aureus 697E; experiment: as above; details: resistant strain Staphylococcus aureus 697E; 2-fold agar dilution; methicillin resistant strains 48 hours at 30° C.; read-out: minimum inhibitory concentration (MIC)
Procedure: as §1

[31] = tested on: Staphylococcus epidermidis 291; experiment: as above; details: resistant strain Staphylococcus epidermidis 291; 2-fold agar dilution; methicillin resistant strains 48 hours at 30° C.; read-out: minimum inhibitory concentration (MIC)
Procedure: as §1

Compound: CON=C1CN(c2c(F)c(N)c3c(=O)c(C(=O)O)cn(C4CC4)c3c2F)CC12CN(C)C2 [Example 11, 1-Cyclopropyl-5-amino-6,8-difluoro-7-[8-(methoxyimino)-2-methyl-2,6-diazaspiro[3,4]oct-6-yl]-4-oxo-1,4-dihydro-3-quinolinecarboxylic acid]
- MIC [1]: 0.781 µg/mL (≈ 1.75 µM)
- MIC [2]: < 0.002 µg/mL
- MIC [3]: 0.391 µg/mL (≈ 0.874 µM)
- MIC [4]: 0.004 µg/mL (≈ 0.00894 µM)
- MIC (Klebsiella oxytoca 1082E): < 0.002 µg/mL
- MIC (Salmonella typhimurium): 0.007 µg/mL (≈ 0.0156 µM)
- MIC [5]: 0.049 µg/mL (≈ 0.11 µM)
- MIC [6]: 0.007 µg/mL (≈ 0.0156 µM)
- MIC [7]: 0.004 µg/mL (≈ 0.00894 µM)
- MIC (Enterobacter clocae P99): 0.013 µg/mL (≈ 0.0291 µM)
- MIC [8]: 0.049 µg/mL (≈ 0.11 µM)
- MIC [9]: 0.781 µg/mL (≈ 1.75 µM)
- MIC [10]: 0.781 µg/mL (≈ 1.75 µM)
- MIC (Esherichia coli 078): < 0.002 µg/mL
- MIC (Esherichia coli DC0): 0.098 µg/mL (≈ 0.219 µM)
- MIC [11]: 0.013 µg/mL (≈ 0.0291 µM)
- MIC [12]: 0.004 µg/mL (≈ 0.00894 µM)
- MIC (Esherichia coli TEM): 0.013 µg/mL (≈ 0.0291 µM)
- MIC (Esherichia coli 1507E): 0.013 µg/mL (≈ 0.0291 µM)
- MIC [13]: 0.013 µg/mL (≈ 0.0291 µM)
- MIC [14]: 0.013 µg/mL (≈ 0.0291 µM)
- MIC [15]: 0.007 µg/mL (≈ 0.0156 µM)
- MIC [16]: 0.013 µg/mL (≈ 0.0291 µM)
- MIC [17]: 0.013 µg/mL (≈ 0.0291 µM)
- MIC [18]: 0.013 µg/mL (≈ 0.0291 µM)
- MIC [19]: 0.195 µg/mL (≈ 0.436 µM)
- MIC [20]: 0.195 µg/mL (≈ 0.436 µM)
- MIC [21]: 0.013 µg/mL (≈ 0.0291 µM)
- MIC [22]: 0.007 µg/mL (≈ 0.0156 µM)
- MIC [23]: 0.195 µg/mL (≈ 0.436 µM)
- MIC [24]: 0.007 µg/mL (≈ 0.0156 µM)
- MIC [25]: 0.007 µg/mL (≈ 0.0156 µM)
- MIC [26]: 0.013 µg/mL (≈ 0.0291 µM)
- MIC [27]: 0.781 µg/mL (≈ 1.75 µM)
- MIC [28]: 0.195 µg/mL (≈ 0.436 µM)
- MIC [29]: 0.195 µg/mL (≈ 0.436 µM)
- MIC [30]: 0.004 µg/mL (≈ 0.00894 µM)
- MIC [31]: 0.781 µg/mL (≈ 1.75 µM)
